Test results taken from patent publication US20020142995A1, “Ammonium salts of hemoglobin allosteric effectors, and uses thereof” (priority 2000, published 2002).
Values joined by “and” are separate entries in the source; they are usually repeats but may differ in a detail not shown here. Equal entries are not always repeated. Where two headings read alike, the source gives them in different places.

Columns and labels:
whole blood = test: Blood oxygen dissociation (Hemox Analyzer) of whole blood pre-incubated with effector; assay type: cell-based; design: Observed P50: unit not given here; details: for change of the P50 of treated Red Blood Cells vs. control: observation, whole blood incubated with effector; for P50 of treated-washed RBC pellet vs. control: after resuspended in HBS
Procedure: Whole blood was collected from one subject. The blood was stored in a Vacutainer with Solution A (ACD) and stored at 4-8° C.
Effector characteristics prior to incubation were:
(see Summary of Results below).
Washes: After incubation of whole blood with/without effector, blood cells were washed four times with Saline buffer or HBS (BSA) by centrifugal pelleting to remove exogenous effector and to evaluate hemolysis. […]
Blood Oxygen Dissociation Reading: Blood Oxygen Dissociation of samples were determined using a Hemox Analizer Model B (TCS Medical Products Company, New Hope, Pa.) The sample chamber contained:
10-20 μL Pelleted Blood Cells incubated with Effector.
All readings were made at 36.7-37.2° C. and at pH 7.28-7.32. The P50S were calculated from the Dissociation Curves (see FIGS. 16-23) compared to same day control P50.

[1] = Visual appearance of effector solution; assay type: physicochemical
Procedure: Preparation of Effector Stock: Effector stock was prepared at 100-120 mM (Molal solution) using water or Bis-Tris Buffer.

Red Blood Cells = test: Aggregation of red blood cells after incubation with effector; assay type: cell-based; details: whole blood incubated with effector
Procedure: Incubation: Whole blood (75-300 μL) was incubated with 200 μL of effector at 37° C. for 5-10 min. (see Summary of Results below).
Washes: After incubation of whole blood with/without effector, blood cells were washed four times with Saline buffer or HBS (BSA) by centrifugal pelleting to remove exogenous effector and to evaluate hemolysis. After final centrifugation, pellet was not resuspended.

goldfish free hemoglobin = biological target: T1, goldfish free hemoglobin (Carassius auratus, UniProt P02018+P02140); test: Oxygen dissociation curves of goldfish free hemoglobin with allosteric effectors; assay type: biochemical; design: unit not given beside the values
T1 construct: human and goldfish free hemoglobin controls; from tissue; host or cells: goldfish blood (erythrocyte hemoglobin freed from cells); inferred from 'free hemoglobin' beside 'whole blood'
T1 sequence (P02140 1-147): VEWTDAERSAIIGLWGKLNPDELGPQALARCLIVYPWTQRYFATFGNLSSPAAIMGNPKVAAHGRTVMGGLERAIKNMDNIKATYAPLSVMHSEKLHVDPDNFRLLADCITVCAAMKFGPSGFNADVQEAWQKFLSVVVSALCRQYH
T1 sequence (P02018 1-142): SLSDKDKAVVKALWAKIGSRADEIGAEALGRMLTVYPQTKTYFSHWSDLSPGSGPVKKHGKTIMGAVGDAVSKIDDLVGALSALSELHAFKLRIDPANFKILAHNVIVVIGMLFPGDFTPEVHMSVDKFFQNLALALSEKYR
Procedure: FIG. 3 tabulates the P50 values of human and goldfish whole blood controls, human and goldfish free hemoglobin controls, and goldfish free hemoglobin that has been pre-incubated with various allosteric effectors and an ammonium salt of one of them.
FIG. 5 depicts oxygen dissociation curves of human free hemoglobin (pH 7.1; […]), goldfish free hemoglobin (pH 7.1; P50=8.5), and goldfish free hemoglobin+0.25 μmol IHP (pH 7.1; P50=15.0).
FIG. 6 depicts oxygen dissociation curves of goldfish free hemoglobin+0.5 μmol PCHA-DPG (pH 7.1; P50=10.3), goldfish free hemoglobin+0.5 μmol ATP (pH 7.08; P50=21.0), and goldfish free hemoglobin+0.5 μmol GTP (pH 7.11; P50=23.0).

stripped hemoglobin = stripped hemoglobin (Homo sapiens, UniProt P68871); details: cited from earlier work
human RBCs = details: IHP encapsulated in human RBCs by electroporation; cited from earlier work
[2] = biological target: allosteric site on hemoglobin (Homo sapiens, UniProt P68871); details: displaces hemoglobin-bound 2,3-DPG; cited from earlier work
[3] = 75 μL whole blood incubated (2-5 min) with 200 μL 30 mM effector, washed 4×, 15 μL RBC measured at 37° C.
[4] = goldfish free hemoglobin + 0.5 μmol effector, pH 7.08-7.11

Chain of stripped hemoglobin (P69905 2-142 partner limits assumed): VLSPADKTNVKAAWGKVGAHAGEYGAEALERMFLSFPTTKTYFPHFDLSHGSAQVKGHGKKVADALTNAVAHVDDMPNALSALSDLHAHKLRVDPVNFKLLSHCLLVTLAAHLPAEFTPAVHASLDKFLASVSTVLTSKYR
Chain of stripped hemoglobin (P68871 2-147 limits assumed): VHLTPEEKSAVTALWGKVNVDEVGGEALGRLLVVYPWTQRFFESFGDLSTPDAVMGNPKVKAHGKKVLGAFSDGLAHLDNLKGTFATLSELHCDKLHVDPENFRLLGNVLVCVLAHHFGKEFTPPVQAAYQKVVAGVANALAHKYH
Chain of allosteric site on hemoglobin (P69905 2-142 partner limits assumed): as the sequence (P69905 2-142 partner limits assumed) above
Chain of allosteric site on hemoglobin (P68871 2-147 limits assumed): as the sequence (P68871 2-147 limits assumed) above

Compound | Observed P50 (whole blood; [3]) | change of the P50 of treated Red Blood Cells vs. control (whole blood) | appearance of the solution [1] | aggregation of Red Blood Cells (Red Blood Cells) | P50 (goldfish free hemoglobin; [4]) | further results
NC1CCCCC1 [CHA, Cyclohexylamine] | 28.5 and 26.8 | No change | visually clear | no aggregation |  | 
Cyclohexylammonium-Inositol Hexaphosphate [CHA-IHP] | 42.0 and 58.2 and 32.8 | Increases the P50 | visually clear | no aggregation |  | Observed P50 (whole blood; 75 μL whole blood + 200 μL 30 mM effector, washed 4×, cell pellet stored for 48 hrs at 4-8° C., measured at 37° C.): 50.5; P50 of treated-washed RBC pellet vs. control (whole blood): maintain higher P50 than the control; P50 EFF:WB (whole blood; same sample as FIG. 12C, evaluated 48 h later (stored at 4-8 C.), 25 mM, 171 mOsM): 50.5 mmHg
O=P(O)(O)O[C@H]1[C@H](OP(=O)(O)O)[C@@H](OP(=O)(O)O)[C@H](OP(=O)(O)O)[C@@H](OP(=O)(O)O)[C@H]1OP(=O)(O)O [IHP, myo-inositol hexakis (dehydrogen Phosphate)] |  | No change | visually clear | no aggregation |  | Observed P50 (whole blood; 75 μL whole blood + 200 μL 30 mM effector, 2-5 min, 37° C., Hypotonic, Osm: 185 mOsM): 37.5; P50 (goldfish free hemoglobin; goldfish free hemoglobin + 0.25 μmol effector, pH 7.1): 15.0; half-saturation pressure P(O2) (½) (stripped hemoglobin; pH 7.4, 25 C.): 48.4 mm Hg; half-saturation pressure P(O2) (½) (stripped hemoglobin; pH 7.4, 37 C.): 96.4 mm Hg; P50 of modified RBCs (human RBCs): approximately 50 torr; affinity for the allosteric site relative to 2,3-DPG [2]: one-thousand times greater affinity
Nc1nc2c(ncn2[C@@H]2O[C@H](COP(=O)(O)OP(=O)(O)OP(=O)(O)O)[C@@H](O)[C@H]2O)c(=O)[nH]1 [GTP] |  |  |  |  | 23.0 | 
O=C([O-])[C@@H](COP(=O)([O-])[O-])OP(=O)([O-])[O-].[Na+].[Na+].[Na+].[Na+].[Na+] [PNa-DPG, 2,3 Diphospho-D-Glyceric Acid (Pentasodium salt)] | 38.2 | No change | visually clear | no aggregation |  | Observed P50 (whole blood; 75 μL whole blood + 200 μL 30 mM effector, 2-5 min, 37° C., Hypotonic, Osm: 163 mOsM): 37.5; Observed P50 (whole blood; 75 μL whole blood + 200 μL 30 mM effector, 2-5 min, 37° C., Isotonic, Osm: 321 mOsM): 39.6
O=C(O)C(COP(=O)(O)O)OP(=O)(O)O (stereo not drawn) [2,3-Diphosphoglycerate] |  |  |  |  |  | half-saturation pressure P(O2) (½) (stripped hemoglobin; pH 7.4, 25 C.): 12.0 mm Hg; half-saturation pressure P(O2) (½) (stripped hemoglobin; pH 7.4, 37 C.): 23.7 mm Hg
NC1CCCCC1.NC1CCCCC1.NC1CCCCC1.NC1CCCCC1.NC1CCCCC1.O=C(O)[C@@H](COP(=O)(O)O)OP(=O)(O)O [PCHA-DPG, 2,3 Diphospho-D-Glyceric Acid (Pentacyclohexyclammonium salt)] | 50.5 and 47.3 and 36.0 | Increases the P50 | visually clear | no aggregation | 10.3 | P50 of treated-washed RBC pellet vs. control (whole blood): maintain higher P50 than the control
Nc1ncnc2c1ncn2[C@@H]1O[C@H](COP(=O)(O)OP(=O)(O)OP(=O)(O)O)[C@@H](O)[C@H]1O [ATP, adenosine triphosphate] |  |  |  |  | 21.0 | 
